Measurements taken from ChEMBL document CHEMBL5331104, “Discovery of BRD4-HDAC Dual Inhibitors with Improved Fungal Selectivity and Potent Synergistic Antifungal Activity against Fluconazole-Resistant Candida albicans” (J Med Chem, 2023).
Converted amounts (≈) assume the structure as drawn. The source made the active and inactive calls. No cut-off for these calls is given here.

How the values were obtained:
Candida albicans [1] = assay: Antifungal activity against Candida albicans SC5314 assessed as fungal growth inhibition incubated for 24 hrs by broth dilution method; format: functional
Candida albicans [2] = assay: Synergetic antifungal activity against Candida albicans 0304103 assessed as microbial growth inhibition incubated for 24 hrs in the presence of (S)-4-((2-(8-Chloro-6-(2-chloropheny1)-1-methyl-4H-benzo[f]-[1,2,4]-triazolo(4,3-a)(1,4]diazepin-4-yl)acetamido)methyl)-N-hydroxy-benzamide by checkerboard microdilution method; format: functional
Cryptococcus neoformans = assay: Antifungal activity against Cryptococcus neoformans 011405 assessed as microbial growth inhibition; format: functional
Nakaseomyces glabratus = assay: (§1) Synergetic antifungal activity against Candida glabrata 4408 assessed as microbial growth inhibition incubated for 24 hrs in the presence of (S)-4-((2-(6-(4-Chlorophenyl)-1-methyl-7,8,9,10-tetrahydro-4H-benzo-(4,5)thieno[3,2-f][1,2,4]triazolo(4,3-a)(1,4)diazepin-4-yl)-acetamido)-methyl)-N-hydroxybenzamide by checkerboard microdilution method; format: functional
Candida albicans [3] = assay: Downregulation of ERG11 expression in Candida albicans 0304103 at 32 ug/mL incubated for 24 hrs by RT q-PCR analysis; format: functional; settings: dose 32.0 µg/ml
Candida albicans [4] = assay: Synergetic antifungal activity against Candida albicans 0304103 assessed as microbial growth inhibition incubated for 24 hrs in the presence of (S)-4-(2-(6-(4-Chloropheny1)-1-methy1-4H-benzo(f)(1,2,4)-triazolo(4,3-a)[1,4]diazepin-4-yl)acetamido)methyl)-N-hydroxybenzamide by checkerboard microdilution method; format: functional
Candida albicans [5] = assay: Antifungal activity against Candida albicans 0304103 assessed as reduction in yeast to hypha transition at 32 ug/mL incubated for 2 hrs by inverse fluorescence microscopy; format: functional, organism-based; settings: dose 32.0 µg/ml
Candida albicans [6] = assay: Antibiofilm activity against FLC-resistant Candida albicans 0304103 assessed as reduction in fungal growth at 32 ug/mL and measured for 48 hrs by time-growth curve assay; format: functional, organism-based; settings: dose 32.0 µg/ml
Candida albicans [7] = assay: Synergetic antifungal activity against Candida albicans 0304103 assessed as microbial growth inhibition incubated for 24 hrs in the presence of (S)-N-Hydroxy-4-((2(1-methyl-6-phenyl-4H-benzor[f](1,2,4)-triazolo-[4,3-a][1,4]diazepin 4-yl)acetamido)methyl)benzamide by checkerboard microdilution method; format: functional
Candida albicans [8] = assay: Synergetic antifungal activity against Candida albicans 0304103 assessed as microbial growth inhibition incubated for 24 hrs in the presence of (S)-4-(2-(6-(4-Chlorophenyl)-1-methyl-4H-benzo[f](1,2,4)-triazolo(4,3-a)(1,4)diazepin-4-yl)acetamido)-N-hydroxybenzamide by checkerboard microdilution method; format: functional
[Candida] auris = as §1, with “auris 0029” for “glabrata 4408”; format: functional; settings: Candidozyma auris
Candida albicans [9] = assay: Antifungal activity against Candida albicans 10061 assessed as microbial growth inhibition; format: functional

OC(Cn1cncn1)(Cn1cncn1)c1ccc(F)cc1F [FLUCONAZOLE]
MIC80 (Candida albicans [1]): 0.5 µg/mL (≈ 1.63 µM)
MIC80 (Candida albicans [2]): 2 µg/mL
MIC80 (Cryptococcus neoformans): 8 µg/mL (≈ 26.1 µM)
MIC80 (Nakaseomyces glabratus): 2 µg/mL
Activity (Candida albicans [3]): inactive
MIC80 (Candida albicans [4]): 2 µg/mL
Activity (Candida albicans [5]): inactive
Activity (Candida albicans [6]): inactive
MIC80 (Candida albicans [7]): 1 µg/mL
MIC80 (Candida albicans [8]): 4 µg/mL
MIC80 ([Candida] auris): 64 µg/mL
MIC80 (Candida albicans [9]): > 64 µg/mL
